What was measured:
[1] = tested on: flank organs of Golden Syrian hamsters (androgen-stimulated hair growth); test: Golden Syrian hamster assay (flank organ hair mass after topical application); type: in vivo
Description: Male intact Golden Syrian hamsters are considered acceptable models for human beard hair growth in that they display oval shaped flank organs, one on each side, each about 8 mm. in major diameter, which grow thick black and coarse hair similar to human beard hair. These organs produce hair in response to androgens in the hamster. To evaluate the effectiveness of a composition including an inhibitor, the flank organs of each of a group of hamsters are depilated by applying a thioglycolate based chemical depilatory (Surgex). To one organ of each animal 25 μl. of vehicle alone once a day is applied, while to the other organ of each animal an equal amount of vehicle containing an inhibitor of a cysteine synthetic pathway enzyme is applied. After thirteen applications (one application per day for five days a week), the flank organs are shaved and the amount of recovered hair (hair mass) from each is weighed. Percent-reduction of hair growth is calculated by subtracting the hair mass (mg) value of the test compound treated side from the hair mass value of the vehicle treated side; the delta value obtained is then divided by the hair mass value of the vehicle treated side, and the resultant number is multiplied by 100.
The above-described assay will be referred to herein as the "Golden Syrian hamster" assay.

[2] = tested on: cysteine synthetic pathway intermediates in flank organ hair follicles; test: Amino acid analysis of hamster flank organ hair follicles (Pico-Tag); type: in vivo; settings: hair follicles of treated flank organs, vehicle A
Experimental: Hair follicles were isolated from the flank organs which were treated with either an inhibitor of a cysteine pathway enzyme or the carrier without the inhibitor (the control). L-Cystathiorine, homocysteine, and S-adenosyl homocysteine, which are involved in a pathway leading to cysteine synthesis, were measured by an amino acid analysis method. The amino analysis of hamster flank organ hair follicles was carried out using a commercially available system (Pico-Tag; Waters Associates, Inc., Milford, Mass.). Hair follicle amino acids were extracted with 0.1N HCL, an derivatized with phenylisothiocyanate to yield the phenylthiohydantion derivatives of the respective amino acids, which were then separated by C-18 reverse phase chromatography, and quantitated by in-line UV spectrophotometry.
More specifically, 250-500 μl of 0.1N HCL was added to each flank organ hair follicle sample, followed by treatment with a sonicator device to obtain cell extracts. The cell extracts were centrifuged at 12,000×gfor 5 min, and the recovered supernatant was filtered through 0.45μ filter. The filtrate was vacuum dried under nitrogen using the Pico-Tag work station. Samples were then derivatized with phenylisothiocyanate reagent by the procedure described in the Waters Associates Pico-Tag manual. An aliquot of the derivatized sample was injected on a C-18 reverse phase column (Pico-Tag column) and the elution was carried out with a gradient buffer system. This procedure separated the amino acids L-cystathionine, homocysteine, and S-adenosyl homocysteine from other amino acids present in hair follicle extracts. The amino acid concentrations were determined at UV wavelength 254 nm using an in-line spectrophotometer and a dedicated HPLC control and data analysis system (Waters Associates).

[3] = topical, dose 20%, vehicle A, pH 8.5, 13 applications
[4] = topical, dose 20%, vehicle A, pH 7.0, 13 applications
[5] = topical, dose 20%, vehicle A, pH 7.5, 13 applications
[6] = topical, dose 10%, vehicle A, pH 4.5, 13 applications
[7] = topical, dose 15%, vehicle B, pH 9.5, 13 applications
[8] = Table 2, topical, dose 0.25%, vehicle A, pH 4.5
[9] = Table 2, topical, dose 0.50%, vehicle A, pH 5.0
[10] = Table 2, topical, dose 1.00%, vehicle A, pH 5.0
[11] = Table 2, topical, dose 5.00%, vehicle A, pH 5.0
[12] = topical, dose 5%, vehicle A, pH 4.5, 13 applications
[13] = topical, dose 15%, vehicle A, pH 8.0, 13 applications

NNC(=O)c1ccncc1 [Isonicotinic acid hydrazide]
Hair Mass Treated (mg mean ± SEM) [1, 3]: 1.344 ± 0.18 mg
Percent Inhibition (mean ± SEM) [1, 3]: 35.13 ± 7.98%

CC(=O)OC[C@H]1O[C@@H](n2ncc(=O)[nH]c2=O)[C@H](OC(C)=O)[C@@H]1OC(C)=O [6-Azauridine-2',3',5'-triacetate]
L-Cystathionine, Percent of Untreated Control (100%) ([2]; dose 20%, pH 7.0): 60%
Hair Mass Treated (mg mean ± SEM) [1, 4]: 0.455 ± 0.05 mg
Percent Inhibition (mean ± SEM) [1, 4]: 80.25 ± 2.37%

NC(C(=O)O)C(F)(F)F (racemic) [3,3,3,-Trifluoro-DL-alanine]
Hair Mass Treated (mg mean ± SEM) [1, 5]: 1.110 ± 0.13 mg
Percent Inhibition (mean ± SEM) [1, 5]: 32.36 ± 8.01%

Nc1ncnc2c1ncn2[C@@H]1O[C@H](CO)[C@@H](O)[C@H]1O [Adenosine]
Hair Mass Treated (mg mean ± SEM) [1, 6]: 1.140 ± 0.12 mg
Percent Inhibition (mean ± SEM) [1, 6]: 55.28 ± 4.00%

C#CCC(N)C(=O)O (racemic) [DL-Propargylglycine, D,L-2-amino-4-pentynoic acid]
Hair Mass Treated (mg mean ± SEM) [1, 7]: 1.401 ± 0.14 mg
Percent Inhibition (mean ± SEM) [1, 7]: 33.12 ± 5.59%

Nc1nccc2c1ncn2[C@@H]1C=C(CO)[C@@H](O)[C@H]1O [3-Deazaneplanocin]
L-Cystathionine, Percent of Untreated Control (100%) ([2]; dose 0.125%, pH 4.5): 49%
S-Adenosyl Homocysteine, Percent of Untreated Control (100%) ([2]; dose 0.125%, pH 4.5): 144%
L-Cystathionine, Percent of Untreated Control (100%) ([2]; dose 0.250%, pH 4.5): 29%
S-Adenosyl Homocysteine, Percent of Untreated Control (100%) ([2]; dose 0.250%, pH 4.5): 149%
L-Cystathionine, Percent of Untreated Control (100%) ([2]; dose 0.500%, pH 4.5): 12%
S-Adenosyl Homocysteine, Percent of Untreated Control (100%) ([2]; dose 0.500%, pH 4.5): 218%
Hair Mass Treated [1, 8]: 1.889 ± 0.15 mg
Percent Inhibition (mean ± SEM) [1, 8]: 14.82 ± 5.45%
Hair Mass Treated [1, 9]: 1.487 ± 0.16 mg
Percent Inhibition (mean ± SEM) [1, 9]: 35.49 ± 4.62%
Hair Mass Treated [1, 10]: 1.113 ± 0.08 mg
Percent Inhibition (mean ± SEM) [1, 10]: 50.94 ± 4.77%
Hair Mass Treated [1, 11]: 0.357 ± 0.15 mg
Percent Inhibition (mean ± SEM) [1, 11]: 86.65 ± 4.81%
dose dependence of inhibition in hair growth ([1]; topical application, dosage levels 0.25% to 5.00%): increased dosage level of the inhibitor provided an increased inhibition in hair growth
Hair Mass Treated (mg mean ± SEM) [1, 12]: 0.357 ± 0.15 mg
Percent Inhibition (mean ± SEM) [1, 12]: 86.65 ± 4.81%

N[C@@H](COC(=O)CCC(=O)O)C(=O)O [O-Succinyl serine]
Homocysteine, Percent of Untreated Control (100%) ([2]; dose 15%, pH 8.0): 228%
L-Cystathionine, Percent of Untreated Control (100%) ([2]; dose 15%, pH 8.0): 66%
Hair Mass Treated (mg mean ± SEM) [1, 13]: 0.710 ± 0.07 mg
Percent Inhibition (mean ± SEM) [1, 13]: 63.58 ± 4.69%
